Measured values as given in US20230295141A1, “FXR SMALL MOLECULE AGONIST, THE PREPARATION AND USE THEREOF” (Cascade Pharmaceuticals, Inc., priority 2022, published 2023).
Read-outs that look alike come from different tables or passages of the source.

Biological target: T1, FXR (Homo sapiens, UniProt Q96RI1)
T1 construct: expressed in transfected cells; host or cells: HEK293T
T1 sequence (Q96RI1 212-476 isoform Q96RI1-1 limits assumed): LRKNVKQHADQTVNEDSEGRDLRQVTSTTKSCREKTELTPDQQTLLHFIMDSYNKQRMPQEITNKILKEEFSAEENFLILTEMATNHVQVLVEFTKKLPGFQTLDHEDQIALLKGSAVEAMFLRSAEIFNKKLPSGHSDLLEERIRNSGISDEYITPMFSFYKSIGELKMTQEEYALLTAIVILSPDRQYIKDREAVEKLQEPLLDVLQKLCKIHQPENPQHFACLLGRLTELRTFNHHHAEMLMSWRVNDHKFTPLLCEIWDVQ
Test: FXR agonistic activity by GAL4-FXR-LBD reporter gene (Dual-Glo luciferase) detection in HEK293T cells
Assay type: cell-based
From the text: Methods for Detecting FXR Agonistic Activity of Compounds Based on Reporter Gene Activity Detection Methods: The pGAL4-FXR-LBD and pG5-Luc plasmids used in the reporter gene detection system were constructed according to conventional molecular cloning methods, including main steps: the FXR (NM_001206979.2) cDNA sequence corresponding to the amino acid sequence of FXR-LBD (212-476AA) was inserted into pGAL4 vector between BamHI and Notl restriction sites using PCR technology to obtain pGAL4-FXR-LBD; pG5-Luc and phRL-TK plasmids were donated by Shanghai Institute of Materia Medica, Chinese Academy of Sciences; the plasmid was transformed into DH5a Escherichia coli by the CaC12 method, and after further culture and amplification, the corresponding plasmid DNA was purified and obtained with a plasmid extraction kit (TIANGEN, #D107). HEK293T cells were seeded in 96-well plates at a density of 1×10^4/well one day before plasmid transfection. Cell transfection was performed according to the instructions of the transfection reagent FuGENE® HD (Promega, #E2311), including main steps: […] 0.25 uL of FuGENE® HD was added, mixed well and let stand for 5 min at room temperature; then 10 uL of this mixture was added to the cell well containing 100 uL of culture medium. […] Then the diluted compounds were added to the cell culture medium for treatment for 24 h. 2 duplicate wells were set up in total. […] After cells were treated with compounds for 24 h, detections were performed according to the instructions of the Dual-Glo® Luciferase Assay System (Promega, #E2940), including main steps: […] then 40 uL of Dual-Glo® Stop & Glo® reagent were added and shaken at room temperature for 10 min; the luminescence signal value of Renilla luciferase (Renilla-Luc) was detected by the MD i3x multifunctional microplate reader; The ratio of Firefly-Luc/Renilla-Luc was used as the activating activity of the compound on FXR, and normalized by the ratio of the solvent DMSO group. The dose- response curves were fitted with four parameters using GraphPad Prism 6.0 software, and EC50 values were calculated.

[1] = Cellular Level Activity EC50(nM) of FXR, HEK293T cells, pGAL4-FXR-LBD/pG5-Luc reporter, 24 h treatment
[2] = EC50 values (FXR agonistic activity), HEK293T reporter gene assay
[3] = HEK293T cells, pGAL4-FXR-LBD/pG5-Luc reporter, 24 h treatment, read-out: Cellular Level Activity EC50(nM) of FXR
[4] = HEK293T reporter gene assay, read-out: EC50 values (FXR agonistic activity)

In the case of `[2H]C(O[C@H]1C[C@H]2CC[C@@H](C1)N2c1ccc(-c2noc(=O)[nH]2)c(F)c1)c1c(-c2c(Cl)cccc2Cl)noc1C1CC1` (stereo partly drawn) [Example 4], the EC50 [1] is reported as under 5 nM and the EC50 [2] is reported as under 5 nM.

Compound `[2H]C([2H])(O[C@H]1C[C@H]2CC[C@@H](C1)N2c1ccc(-c2noc(=O)[nH]2)c(C)c1)c1c(-c2c(Cl)cccc2Cl)noc1C1CC1` [Example 5] has an EC50 [3] of 5 to 10 nM.

`[2H]C([2H])(O[C@H]1C[C@H]2CC[C@@H](C1)N2c1ccc(-c2noc(=O)[nH]2)c(OC)c1)c1c(-c2c(Cl)cccc2Cl)noc1C1CC1` [Example 6] was tested, and the EC50 [3] was 5 to 10 nM.

`[2H]C([2H])(O[C@H]1C[C@H]2CC[C@@H](C1)N2c1ccc(-c2noc(=O)[nH]2)c(C(F)(F)F)c1)c1c(-c2c(Cl)cccc2Cl)noc1C1CC1` [Example 7] gave an EC50 [3] of 5 to 10 nM.

Work on `[2H]C([2H])(O[C@H]1C[C@H]2CC[C@@H](C1)N2c1ccc(-c2noc(=O)[nH]2)nc1)c1c(-c2c(Cl)cccc2Cl)noc1C1CC1` [Example 2] yielded an EC50 [3] of under 5 nM and an EC50 [4] of under 5 nM.

In the case of `[2H]C([2H])(O[C@H]1C[C@H]2CC[C@@H](C1)N2c1ccc(-c2noc(=O)[nH]2)c(F)c1)c1c(-c2ccccc2OC(F)(F)F)noc1C1CC1` [Example 9], the EC50 [3] is reported as 5 to 10 nM.

In the case of `O=c1[nH]c(-c2ccc(N3[C@@H]4CC[C@H]3C[C@@H](OCc3c(-c5c(Cl)cccc5Cl)noc3C3CC3)C4)cc2F)no1` [Control 1, reference compound], the EC50 [1] is reported as 5 to 10 nM.

For `[2H]C([2H])(O[C@H]1C[C@H]2CC[C@@H](C1)N2c1ccc(-c2noc(=O)[nH]2)c(F)c1)c1c(-c2c(Cl)cccc2Cl)noc1C1CC1` [Example 3], the EC50 [1] was under 5 nM, the EC50 [2] was under 5 nM and the “FXR agonistic / cellular level activity, in words” value (HEK293T reporter gene assay, comparison with LJN452 and Control 1) was “significantly improved activity”.

With `[2H]C([2H])(O[C@H]1C[C@H]2CC[C@@H](C1)N2c1ccc(-c2noc(=O)[nH]2)c(F)c1)c1c(-c2ccccc2C(F)(F)F)noc1C1CC1` [Example 8] the EC50 [3] was 5 to 10 nM.

Compound `[2H]C([2H])(O[C@H]1C[C@H]2CC[C@@H](C1)N2c1ccc(-c2noc(=O)[nH]2)cc1)c1c(-c2c(Cl)cccc2Cl)noc1C1CC1` [Example 1] has an EC50 [3] of under 5 nM and an EC50 [4] of under 5 nM.
